Data from patent publication US5063203A, “Method of preventing or treating thrombosis using kappa-caseinoglycopeptide as active ingredient” (Centre National de la Recherche Scientifique (CNRS), priority 1989, dated 1991).
Where “and” joins values, the source holds several entries; their conditions need not be identical. Identical values can stand only once. Entries after “also recorded” stand apart in the source; their conditions may differ.

Key:
[1] = tested on: blood-platelets; conditions: literature, fragments of cow's CGP; cited from earlier work
[2] = tested on: blood-platelets; conditions: literature, fragments of cow's CGP; same concentrations as the undecapeptide; cited from earlier work
[3] = tested on: human blood-platelets; assay: aggregation of human blood-platelets caused by ADP; format: cell-based; design: key to Aggregation with ADP, concentration which induces 50% inhibition: --: No inhibition
Source text: (§1) More precisely, its activity upon the blood-platelet functions has been studied in vitro in relation to the inhibition of the aggregation of blood-platelets caused by ADP ("aggregation with ADP"), in relation to the inhibition of the attachment of fibrinogen to the blood-platelets caused by ADP ("attachment of fibrinogen with ADP"), in relation to the inhibition of the aggregation of blood-platelets caused by thrombin ("aggregation with thrombin") and in relation to the inhibition of the reaction caused by thrombin ("secretion reaction with thrombin") that is to say the release of one of the constituents of the dense granule (serotonin), evidence of blood-platelet activation.
(§2) These three products (κ-casein, κ-paracasein and CGP) have been tested upon the aggregation of human blood-platelets by ADP and by thrombin, upon the fixing of fibrinogen in the presence of ADP, and on the secretion reaction.

[4] = tested on: human blood-platelets; assay: attachment of fibrinogen to the blood-platelets caused by ADP; format: cell-based; conditions: CGP at 250 μM
Source text: as §1, §2

[5] = tested on: human blood-platelets; assay: secretion reaction with thrombin (release of serotonin from the dense granule); format: cell-based
Source text: as §1, §2

[6] = tested on: human blood-platelets; assay: aggregation of human blood-platelets caused by thrombin; format: cell-based
Source text: as §1, §2

| IC50 ([5]; Table II, read-out: Secretion reaction with thrombin, concentration which induces 50% inhibition) [µM] | IC50 ([5]; read-out: CI50, secretion reaction with thrombin) | IC50 ([6]; Table II, read-out: Aggregation with thrombin, concentration which induces 50% inhibition) [µM] | IC50 ([6]; read-out: CI50, aggregation with thrombin) | Substance | inhibition of blood-platelet aggregation in vitro [1] | inhibition of the attachment of fibrinogen to the blood-platelets in vitro [2] | CI50, aggregation with ADP [3] | Aggregation with ADP, concentration which induces 50% inhibition ([3]; Table II) | inhibition of fibrinogen attachment with ADP [4] |
| --- | --- | --- | --- | --- | --- | --- | --- | --- | --- |
|  |  |  |  | heptapeptide containing the residues 106→112: fragment 106→112 of cow's κ-caseinoglycopeptide, by trypsin digestion of CGP or by synthesis (MAIPPKK; UniProt P02668 127-133, looked up, fragment) | non-inhibiting | none of these peptides inhibit |  |  |  |
|  |  |  |  | tetrapeptide containing the residues 113→116: fragment 113→116 of cow's κ-caseinoglycopeptide, by trypsin digestion of CGP or by synthesis (NQDK; UniProt P02668 134-137, looked up, fragment) | inhibits only very slightly | none of these peptides inhibit |  |  |  |
| 10 | 10 µM and ~10 µM | 10 | 10 µM and ~10 µM | κ-casein: cow's milk protein that under chymosin yields κ-paracasein and CGP; comparator |  |  | inactive; also recorded: inhibits neither | -- | inhibits neither |
